Read-outs that look alike come from different tables or passages of the source.
Test: Single-dose pharmacokinetics in dogs (plasma, UHPLC/MS/MS)
Assay type: in vivo, Beagle dogs
Settings: for MRT last: read-out: MRT0-t; for MRT inf: read-out: MRT0-∞
Excerpt: Sixty healthy adult Sprague Dawley rats (180-220 g, half male and female) were purchased from the Guangdong Medical Laboratory Animal Center (Guangzhou, Guangdong, China). Thirty Beagle dogs (10-14 kg, half male and female) were purchased from the […] Laboratory Animal Science & Technology Co., Ltd. (Gaoyao, Guangdong, China). All animals were housed under humanized conditions with free access to food and water, and acclimated to the living conditions for at least one week prior to experimentation at the Laboratory Animal Center of the School of Life Sciences, Sun Yat-sen University. Environmental conditions were maintained at 20°C-25°C, 55% ± 15% relative humidity, 12-h light/dark cycles, and 12 air changes per hour. Prior to experimentation, the animals were fasted overnight with water available ad libitum. All animals were healthy based on physical examination and laboratory analyses performed before and after the experiments. At the end of the experiments, the dogs were returned to the Laboratory Animal Center of School of Life Sciences, Sun Yat-sen University. […] All blood samples were transferred into heparin-treated centrifuge tubes and centrifuged for 10 min at 4,000 rpm and 4°C. All human urine samples were mixed and transferred (4 ml) into storage tubes. All biological samples were stored at -80°C. […] The optimal volume and activity in unit volume of enzyme solution [0.2 M acetic acid/water solution: 0.2 M ammonium acetate/water solution, 15:35 (v/v)] were determined through a pretest of the enzyme (rat plasma, 10 μl, 10 U μl^-1; dog plasma, 10 μl, 10 U μl^-1; human plasma, 20 μl, 20 U μl^-1; human urine, 10 μl, 10 U μl^-1). After enzyme incubation, 10 μl of IS solution was added to the plasma and urine samples (2 μg ml^-1 quercetin 3-β-D-glucoside for rat and dog plasma; 583 ng ml^-1 naringin-D4 and 160 ng ml^-1 naringenin-D4 for human plasma; and 9,710 ng ml^-1 naringin-D4 and 6,000 ng ml^-1 naringenin-D4 for human urine). To each fecal sample, 9-fold methanol-normal saline (2:1, v/v) was added, mixed (18,000 rpm, 15 min) by vortexing and centrifuged (10 min, 9,000 rpm, 4°C). Next, 10 μl IS solution (971 ng ml^-1 naringin-D4 and 600 ng ml^-1 naringenin-D4) was added to the supernatants of feces (200 μl) without enzyme incubation. […] The solid material was dissolved with acetonitrile-water (1:1, v/v) and injected into the ultra high-performance liquid chromatography coupled with triple quadrupole mass spectrometry (UHPLC/MS/MS) system as described below. The analysis of nonclinical and clinical samples was performed with a UHPLC/MS/MS system that consisted of a Shimadzu Nexera X2 ultra high-performance liquid chromatography (UHPLC) (Shimadzu Corp., Kyoto, Japan) coupled with an AB Sciex API4000 triple-quadrupole mass spectrometry (MS/MS) system (AB Sciex, Foster City, CA, USA) equipped with an electrospray ionization source and controlled by Analyst (v. 1.6.2) software. […] The injection volume was 10 μl with the flow rate of 0.3 ml min^-1 for plasma, and 0.4 ml min^-1 for urine and feces. The compounds were detected by multiple reaction monitoring in the negative ion electrospray mode. The electrospray source conditions were as follows: ion source gas1 30 psi, ion source gas2 60 psi, curtain gas 20 psi, collisionally activated dissociation (CAD) gas 8 psi, temperature 500°C, and ion spray voltage -4,500 V. Zero air was used for ion source gas1 and ion source gas2 and nitrogen for curtain gas and CAD gas. […] All pharmacokinetic and excretion parameters were expressed as mean ± standard deviation (SD). All mean and SD values were reported to three significant figures. The pharmacokinetic parameters were calculated using the Phoenix WinNonlin software (Version 6.4, Pharsight Corp., Cary, NC, USA) and compared using the Student's t-test (p < 0.05) in SPSS 18.0 (SPSS Inc., Chicago, IL, USA). […]

[1] = both sexes, Beagle, dog, plasma, po, 3.1 mg/kg
[2] = both sexes, Beagle, dog, plasma, po, 12.4 mg/kg
[3] = both sexes, beagle, dog, plasma, iv, 12.4 mg/kg
[4] = both sexes, beagle, dog, plasma, po, 49.6 mg/kg
[5] = female, Beagle, dog, plasma, iv, 12.4 mg/kg
[6] = female, Beagle, dog, plasma, po, 3.1 mg/kg
[7] = female, Beagle, dog, plasma, po, 12.4 mg/kg
[8] = female, Beagle, dog, plasma, po, 49.6 mg/kg
[9] = male, Beagle, dog, plasma, iv, 12.4 mg/kg
[10] = male, Beagle, dog, plasma, po, 3.1 mg/kg
[11] = male, Beagle, dog, plasma, po, 12.4 mg/kg
[12] = male, Beagle, dog, plasma, po, 49.6 mg/kg
[13] = naringin 3.1 mg kg^-1 p.o. single dose, dog
[14] = naringin 12.4 mg kg^-1 p.o. single dose, dog
[15] = naringin 49.6 mg kg^-1 p.o. single dose, dog

Structure (SMILES): C[C@@H]1O[C@@H](O[C@H]2[C@H](Oc3cc(O)c4c(c3)O[C@H](c3ccc(O)cc3)CC4=O)O[C@H](CO)[C@@H](O)[C@@H]2O)[C@H](O)[C@H](O)[C@H]1O [naringin, Naringin]
- half-life (both sexes, Beagle, dog, plasma, po): 1.41 ± 0.671 h
- AUC(0-inf) [1]: 129 ± 78.2 ng·h/mL
- AUC(0-t) [1]: 108 ± 58.8 ng·h/mL
- Cmax [1]: 39.9 ± 10.4 ng/mL
- Tmax [1]: 1.33 ± 0.258 h
- half-life [1]: 1.84 ± 1.46 h
- MRT last [1]: 2.5 ± 1.05 h
- MRT inf [1]: 3.38 ± 1.88 h
- AUC(0-inf) [2]: 135 ± 35.5 ng·h/mL
- AUC(0-t) [2]: 124 ± 32.2 ng·h/mL
- Cmax [2]: 70.2 ± 16.9 ng/mL
- Tmax [2]: 1 ± 0.316 h
- half-life [2]: 1.31 ± 0.581 h
- MRT last [2]: 1.77 ± 0.371 h
- MRT inf [2]: 2.17 ± 0.633 h
- Tmax (both sexes, Beagle, dog, plasma, po, dogs, nonclinical p.o. administration studies overall): 1.11 ± 0.344 h
- AUC(0-inf) [3]: 2930 ± 403 ng·h/mL
- AUC(0-t) [3]: 2920 ± 406 ng·h/mL
- Cmax [3]: 5800 ± 946 ng/mL
- Tmax [3]: 0.08 h
- clearance [3]: 71.8 mL/min/kg
- half-life [3]: 1.37 ± 0.347 h
- MRT last [3]: 0.703 ± 0.153 h
- MRT inf [3]: 0.727 ± 0.143 h
- Vd (both sexes, beagle, dog, plasma, iv, 12.4 mg/kg, read-out: Vd): 8.69 ± 3.35 L/kg
- AUC(0-inf) [4]: 224 ± 104 ng·h/mL
- AUC(0-t) [4]: 211 ± 92.1 ng·h/mL
- Cmax [4]: 107 ± 78.2 ng/mL
- Tmax [4]: 1 ± 0.447 h
- half-life [4]: 1.31 ± 0.293 h
- MRT last [4]: 2.46 ± 1.11 h
- MRT inf [4]: 2.73 ± 1.02 h
- AUC(0-inf) [5]: 3200 ± 337 ng·h/mL
- AUC(0-t) [5]: 3190 ± 344 ng·h/mL
- Cmax [5]: 5860 ± 1070 ng/mL
- Tmax [5]: 0.08 h
- half-life [5]: 1.25 ± 0.317 h
- AUC(0-inf) [6]: 109 ± 67.7 ng·h/mL
- AUC(0-t) [6]: 88.5 ± 40 ng·h/mL
- Cmax [6]: 36.8 ± 12.6 ng/mL
- Tmax [6]: 1.17 ± 0.289 h
- half-life [6]: 1.26 ± 0.633 h
- AUC(0-inf) [7]: 132 ± 36.8 ng·h/mL
- AUC(0-t) [7]: 115 ± 27.9 ng·h/mL
- Cmax [7]: 60.2 ± 10.8 ng/mL
- Tmax [7]: 1 ± 0.1 h
- half-life [7]: 1.42 ± 0.782 h
- AUC(0-inf) [8]: 262 ± 144 ng·h/mL
- AUC(0-t) [8]: 240 ± 128 ng·h/mL
- Cmax [8]: 157 ± 87.5 ng/mL
- Tmax [8]: 1.17 ± 0.289 h
- half-life [8]: 1.13 ± 0.312 h
- AUC(0-inf) [9]: 2640 ± 255 ng·h/mL
- AUC(0-t) [9]: 2640 ± 256 ng·h/mL
- Cmax [9]: 5740 ± 1050 ng/mL
- Tmax [9]: 0.08 h
- half-life [9]: 1.48 ± 0.404 h
- AUC(0-inf) [10]: 149 ± 97.4 ng·h/mL
- AUC(0-t) [10]: 128 ± 76.6 ng·h/mL
- Cmax [10]: 42.9 ± 9.19 ng/mL
- Tmax [10]: 1.5 ± 0.231 h
- half-life [10]: 2.41 ± 1.98 h
- AUC(0-inf) [11]: 137 ± 42.3 ng·h/mL
- AUC(0-t) [11]: 132 ± 40 ng·h/mL
- Cmax [11]: 80.2 ± 17.2 ng/mL
- Tmax [11]: 1 ± 0.5 h
- half-life [11]: 1.2 ± 0.443 h
- AUC(0-inf) [12]: 185 ± 45.5 ng·h/mL
- AUC(0-t) [12]: 181 ± 46.7 ng·h/mL
- Cmax [12]: 56.6 ± 6.83 ng/mL
- Tmax [12]: 0.833 ± 0.577 h
- half-life [12]: 1.5 ± 0.117 h
- CL [13]: 520 ± 257 mL/min/kg
- Vd [13]: 61.2 ± 23.0 L/kg
- CL [14]: 1630 ± 453 mL/min/kg
- Vd [14]: 171 ± 59.4 L/kg
- CL [15]: 4450 ± 2120 mL/min/kg
- Vd [15]: 482 ± 173 L/kg

Structure (SMILES): O=C1C[C@@H](c2ccc(O)cc2)Oc2cc(O)cc(O)c21 [naringenin, Naringenin]
- half-life (both sexes, Beagle, dog, plasma, oral, naringenin in dogs, studies overall): 2.03 ± 0.968 h
- lag-time in plasma (dogs, after p.o. naringin): 1.83 ± 0.923 h
- time for concentrations to increase to Cmax after the lag-time (dogs, after p.o. naringin): 4.17 ± 1.68 h

From PMC7118210 (Frontiers in Pharmacology, 2020)
